Measured values as given in patent publication US20250026745A1 (Bluejay Therapeutics, Inc., priority 2023, published 2025).
Where two headings read alike, the source gives them in different places.

Legend:
[1] = cited from earlier work
[2] = molecular target: HEK293 cells expressing 17β-HSD13 (Homo sapiens (Human), UniProt Q7Z5P4); assay: 17β-HSD13 cell-based assay (β-estradiol conversion, LC-MS/MS)
Description: HEK293 cells expressing 17β-HSD13 either stably or transiently were incubated with compounds for 60 min at 37° C. in a humidified incubator. After this first incubation step, β-estradiol was added to each well of the microtiter plate and incubated for 3 h at 37° C. in the humidified incubator. After treatment with β-Estradiol, 50 μL of supernatant was transferred to a 96-V plate containing 100 μL acetonitrile and centrifuged at 3900 rpm for 45 min. Finally, 50 μL of supernatant were taken for LC-MS/MS analysis. The chromatography part was run on a Xbridge 30 mm×2.1 mm column (Waters), at 40 degrees Celsius and a flow rate of 0.8 mL/min for 5 min, while the MS was done on a Q Exactive Orbitrap (Fisher Scientific) in Target SIM mode and negative polarity with a spray voltage of 3.5 kV. EC50 values were determined with GraphPad Prism®, where log-transformed concentration values and the inhibition data were fitted to a four-parameter logistic equation. Y=Bottom+(Top−Bottom)/(1+10^((Log EC50−X)*Hill Slope)). The original, % control, or % inhibition data are represented by Y along with their minimal (Bottom) and maximal (Top) values. The inhibitor concentration is represented by X, EC50 is the concentration at 50% maximal value, and Hill Slope is the slope factor.

[3] = molecular target: recombinant 17β-HSD13 protein (Homo sapiens (Human), UniProt Q7Z5P4); assay: 17β-HSD13 biochemical assay (NAD+/NADH Glo chemiluminescence); settings: 17β-HSD13 50 nM, NAD+ 10 mM, β-estradiol 20 μM, 2 hours room temperature
Sequence of recombinant 17β-HSD13 protein (Q7Z5P4 20-300): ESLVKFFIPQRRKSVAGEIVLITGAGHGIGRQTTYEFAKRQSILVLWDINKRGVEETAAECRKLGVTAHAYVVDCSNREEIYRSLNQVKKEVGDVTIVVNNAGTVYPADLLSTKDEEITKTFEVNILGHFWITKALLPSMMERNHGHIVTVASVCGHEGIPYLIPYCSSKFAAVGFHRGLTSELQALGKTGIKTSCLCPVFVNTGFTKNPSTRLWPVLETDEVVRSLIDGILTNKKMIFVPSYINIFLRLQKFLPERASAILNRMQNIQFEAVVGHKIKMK
How it was run: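 Compounds preincubated 1 h at room temperature with 50 nM enzyme and 10 mM NAD+ (final) in 200 mM Tris pH 7.5, 0.01% Triton X-100, 0.02% BSA. Reaction started with 20 μM β-estradiol and run 2 hours at room temperature; NADH formation detected by NAD+/NADH-Glo chemiluminescence. IC50 from four-parameter logistic fit.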

[4] = Recovery of glucuronide Compound I-51 spiked into mouse liver tissue homogenate (30% ACN in water with 2% FA); assay type: in vitro ADME; settings: parent Compound I-16 measured in I-51-spiked sample
Excerpt: Compound I-51, a glucuronide of compound I-16, was used to develop methodology to ensure the glucuronide metabolite of the phenol could be stabilized in liver tissue to glucuronidase and other enzymatic cleavage in order to determine accurate levels of parent:glucuronide in the liver tissue. A known amount of Compound I-51 was spiked into a gram of mouse liver tissue where 2% formic acid (FA) was used with 30% acetonitrile (ACN) in water to stop all enzymatic glucuronidase activity.
Comparison of Treatment on ‘30% ACN in Water with 2% FA’ Homogenate Buffer for Compound I-51:
1). Prepared the homogenate buffer ‘30% ACN in water with 2% FA’ (including […] Compound 1-51), then homogenized with the liver tissue together. Due to the ratio of 1:9 (1 g tissue with 9 mL buffer), the final concentration was 900 ng/mL.
2). An aliquot of 20 μL sample were taken for analysis. Compound I-51 was Added after Homogenate:
1). The liver tissue was homogenized with the buffer ‘30% ACN in water with 2% FA’, then 2 μL 18 µg/mL Compound I-51 was spiked in 38 μL liver homogenate, the final concentration was 900 ng/mL. 2). An aliquot of 20 μL sample were taken for analysis. […]
The amount of parent was measured under these conditions Compound I-16 after generating a standard curve for Compound I-16.

Sequence of HEK293 cells expressing 17β-HSD13 (Q7Z5P4 20-300): as above

Row | EC50 ([2]; HEK293 cells stably expressing 17β-HSD13 (footnote b), read-out: EC50, nM Stable) [nM] | EC50 ([2]; HEK293 cells transiently expressing 17β-HSD13 (footnote a), read-out: EC50, nM Transient) [nM] | IC50 [3] [nM] | Calculated Concentration (ng/mL) of parent ([4]; after homogenate) [ng/mL] | Calculated Concentration (ng/mL) of parent ([4]; before homogenate) [ng/mL] | SMILES | glucuronidation / in vivo clearance [1]
1 | – | – | – | – | – | CCn1c(=O)c(C)cn(Cc2ccc(-c3ccc(F)c(O)c3F)s2)c1=O [BI-3231] | prone to rapid glucuronidation on the phenol moiety leading to fast in vivo clearance
2 | 37.1 | 107 | 12.9 ± 2.43 | 5.237 | 5.618 | O=C1N(CC(F)(F)F)C(=O)C2(CC2)N1Cc1nnc(-c2ccc(F)c(O)c2Cl)s1 [Compound I-16, 4-((5-(2-chloro-4-fluoro-3-hydroxyphenyl)-1,3,4-thiadiazol-2-yl)methyl)-6-(2,2,2-trifluoroethyl)-4,6-diazaspiro[2.4]heptane-5,7-dione] | –
